Measured values reported in patent US7932262B2 (Novartis AG, priority 2006, dated 2011).
Read-outs that look alike come from different tables or passages of the source.

How the values were obtained:
PDK1 kinase = target: T1, PDK1 kinase (Homo sapiens, UniProt O15530); test: PDK1 Kinase Alpha Screen Assay; type: biochemical; settings: read-out: PDK1 IC50
T1 sequence (O15530 1-556): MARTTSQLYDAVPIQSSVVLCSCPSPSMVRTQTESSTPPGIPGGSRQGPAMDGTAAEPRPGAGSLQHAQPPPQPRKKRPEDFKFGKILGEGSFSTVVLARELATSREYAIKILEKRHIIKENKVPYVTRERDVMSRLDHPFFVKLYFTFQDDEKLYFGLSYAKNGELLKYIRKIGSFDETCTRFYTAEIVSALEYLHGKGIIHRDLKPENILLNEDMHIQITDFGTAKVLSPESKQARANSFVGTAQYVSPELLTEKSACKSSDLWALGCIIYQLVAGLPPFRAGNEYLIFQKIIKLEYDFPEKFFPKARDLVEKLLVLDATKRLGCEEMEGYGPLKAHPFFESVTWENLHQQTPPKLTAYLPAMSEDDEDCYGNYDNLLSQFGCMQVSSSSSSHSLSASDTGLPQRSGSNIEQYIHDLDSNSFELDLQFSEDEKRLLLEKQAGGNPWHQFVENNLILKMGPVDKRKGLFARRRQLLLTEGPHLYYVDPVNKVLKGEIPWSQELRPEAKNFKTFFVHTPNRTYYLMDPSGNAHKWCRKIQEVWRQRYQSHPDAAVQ
Method in brief: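 Kinase inhibition measured as loss of AlphaScreen signal from antibody recognition of phosphorylated biotin-PDK1-4 peptide. Reactions contain 10 uM ATP and 50 nM peptide, run 3-18 hours before EDTA quench and overnight bead development at room temperature.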

A2780 cells = test: Cell Proliferation Assay (Cell Titer Glo), A2780; type: cell-based; settings: Homo sapiens, read-out: CPEC50 A2780
Method: IV. Cell Proliferation Assay Protocol:
A2780, PC-3, or PC3MM cells were seeded at 1000 cells/well in 100 μL/well (10.000 cells/mL) growth media in 96-well plates. Cells were allowed to adhere to the bottom of plates for 3-5 hours in a 37° C. 5% CO2 incubator. Compounds were dissolved in DMSO and then transferred to the cell plates. The cells were incubated with the compounds for 3 days in a 37° C. 5% CO2 incubator. The growth medium containing the compounds was then removed from the cells and fresh medium was added, followed by 100 μL of Cell Titer Glo assay reagent (Promega). This mixture was shaken for 1 minute and then incubated without shaking for 10 minutes. Activity determinations for the compounds were made by detection on a Trilux Instrument.

[1] = 72 h, A2780 cells, 3 days incubation
[2] = Cell Proliferation Assay, A2780
[3] = cell proliferation, A2780 cells

| IC50 (PDK1 kinase) [µM] | EC50 (A2780 cells; [1]) [µM] | EC50 (A2780 cells; [2]) [µM] | EC50 (A2780 cells; [3]) [µM] | Compound |
| --- | --- | --- | --- | --- |
| < 5 | < 5 |  |  | CC(C)N1CCC(Oc2cccc3cnc(Nc4cccc(S(=O)(=O)N5CCOCC5)c4)nc23)CC1 [Compound 6, [8-(1-Isopropyl-piper-idin-4-yloxy)-quina-zolin-2-yl]-[3-(morpholine-4-sul-fonyl)-phenyl]-amine] |
| < 5 | < 5 |  |  | CN1CCN(S(=O)(=O)c2cccc(Nc3ncc4cccc(OC5CCNCC5)c4n3)c2)CC1 [Compound 7, [3-(4-Methyl-piper-azine-1-sulfonyl)-phenyl]-[8-(piperidin-4-yloxy)-quinazolin-2-yl]-amine] |
| < 5 | < 5 |  |  | CC(C)NS(=O)(=O)c1cccc(Nc2ncc3cccc(OC4CCNCC4)c3n2)c1 [Compound 8, N-Isopropyl-3-[8-(piperidin-4-yloxy)-quinazolin-2-yl-amino]-benzenesulfonamide] |
| < 5 | < 5 |  |  | COCCNS(=O)(=O)c1cccc(Nc2ncc3cccc(OC4CCNCC4)c3n2)c1 [Compound 9, N-(2-Methoxy-ethyl)-3-[8-(piperidin-4-yloxy)-quinazolin-2-ylamino]-benzenesulfonamide] |
| < 5 | < 5 |  |  | CN1CCN(S(=O)(=O)c2ccc(Nc3ncc4cccc(OC5CCNCC5)c4n3)cc2)CC1 [Compound 10, [4-(4-Methyl-piper-azine-1-sulfonyl)-phenyl]-[8-(piper-idin-4-yloxy)-quinazolin-2-yl]-amine] |
| < 5 | 5 to 10 |  |  | O=S(=O)(NCCN1CCCC1)c1cccc(Nc2ncc3cccc(OC4CCNCC4)c3n2)c1 [Compound 15, 3-[8-(Piperidin-4-yl-oxy)-quinazolin-2-ylamino]-N-(2-pyrrolidin-1-yl-ethyl)-benzenesulfonamide] |
| < 5 | < 5 |  |  | O=S(=O)(NC1CC1)c1cccc(Nc2ncc3cccc(OC4CCNCC4)c3n2)c1 [Compound 16, N-Cyclopropyl-3-[8-(piperidin-4-yloxy)-quinazolin-2-ylamino]-benzenesulfonamide] |
| < 5 | < 5 |  |  | NS(=O)(=O)c1ccc(Nc2ncc3ccc(Br)c(OC4CCNCC4)c3n2)cc1 [Compound 17, 4-[7-Bromo-8-(piper-idin-4-yloxy)-quin-azolin-2-ylamino]-benzenesulfonamide] |
| < 5 | 5 to 10 |  |  | NC(=O)c1ccc(-c2ccc3cnc(Nc4ccc(S(N)(=O)=O)cc4)nc3c2OC2CCNCC2)cc1 [Compound 19, 4-[8-(Piperidin-4-yl-oxy)-2-(4-sulfamoyl-phenylamino)-quinazolin-7-yl]-benzamide] |
| < 5 | < 5 |  |  | NS(=O)(=O)c1ccc(Nc2ncc3ccc(-c4ccncc4)c(OC4CCNCC4)c3n2)cc1 [Compound 20, 4-[8-(Piperidin-4-yl-oxy)-7-pyridin-4-yl-quinazolin-2-ylamino]-benzenesulfonamide] |
| < 5 | 5 to 10 |  |  | Nc1ncc(-c2ccc3cnc(Nc4ccc(S(N)(=O)=O)cc4)nc3c2OC2CCNCC2)cn1 [Compound 22, 4-[7-(2-Amino-pyrimidin-5-yl)-8-(piperidin-4-yloxy)-quinazolin-2-ylamino]-benzenesulfonamide] |
| < 5 | < 5 |  |  | N#Cc1ccc2cnc(Nc3ccc(S(N)(=O)=O)cc3)nc2c1OC1CCNCC1 [Compound 29, 4-[7-Cyano-8-(piperidin-4-yloxy)-quinazolin-2-ylamino]-benzenesulfonamide] |
| < 5 | < 5 |  |  | NC(=O)c1ccc(Nc2ncc3cccc(OC4CCNCC4)c3n2)cc1 [Compound 30, 4-[8-(Piperidin-4-yloxy)-quinazolin-2-ylamino]-benzamide] |
| < 5 | < 5 |  |  | NS(=O)(=O)c1ccc(Nc2ncc3cccc(O[C@H]4CCNC4)c3n2)cc1 [Compound 32, 4-[8-((S)-Pyrrolidin-3-yloxy)-quinazolin-2-ylamino]-benzenesulfonamide] |
| < 5 | < 5 |  |  | CN1CC[C@H](Oc2cccc3cnc(Nc4ccc(S(N)(=O)=O)cc4)nc23)C1 [Compound 34, 4-[8-((S)-1-Methyl-pyrrolidin-3-yloxy)-quinazolin-2-ylamino]-benzenesulfonamide] |
| < 5 | < 5 |  |  | CN1CC[C@@H](Oc2cccc3cnc(Nc4ccc(S(N)(=O)=O)cc4)nc23)C1 [Compound 38, 4-[8-((R)-1-Methyl-pyrrolidin-3-yloxy)-quinazolin-2-ylamino]-benzenesulfonamide] |
| < 5 | < 5 |  |  | CN1CCCC(Oc2cccc3cnc(Nc4ccc(S(N)(=O)=O)cc4)nc23)C1 (centres unmarked) [Compound 39, 4-[8-(1-Methyl-piperidin-3-yloxy)-quinazolin-2-ylamino]-benzenesulfonamide] |
| < 5 | < 5 |  |  | CC(C)N1CC(Oc2cccc3cnc(Nc4ccc(S(N)(=O)=O)cc4)nc23)C1 [Compound 47, 4-[8-(1-Isopropyl-azetidin-3-yloxy)-quinazolin-2-ylamino]-benzenesulfonamide] |
| < 5 | 5 to 10 |  |  | NS(=O)(=O)c1ccc(Nc2ncc3cccc(OC4CNC4)c3n2)cc1 [Compound 48, 4-[8-(Azetidin-3-yloxy)-quinazolin-2-ylamino]-benzenesulfonamide] |
| < 5 | < 5 |  |  | CC(C)CN1CC(Oc2cccc3cnc(Nc4ccc(S(N)(=O)=O)cc4)nc23)C1 [Compound 49, 4-[8-(1-Isobutyl-azetidin-3-yloxy)-quinazolin-2-ylamino]-benzenesulfonamide] |
|  |  | 5 to 10 |  | NS(=O)(=O)c1ccc(Nc2ncc3cc(F)cc(-c4ccc(F)nc4)c3n2)cc1 [Compound 633, 4-(6-fluoro-8-(6-fluoropyridin-3-yl)quinazolin-2-ylamino)benzenesulfonamide] |
|  |  | 5 to 10 |  | COc1cc(-c2ccc3cnc(Nc4ccc(S(N)(=O)=O)cc4)nc3c2)c(Cl)cn1 [Compound 696, 4-(7-(5-chloro-2-methoxypyridin-4-yl)quinazolin-2-ylamino)benzenesulfonamide] |
|  |  |  | < 5 | COc1cccc(COc2cccc3cnc(Nc4ccc(S(N)(=O)=O)cc4)nc23)c1 [Compound 719, 4-(8-(3-methoxybenzyloxy)quinazolin-2-ylamino)benzenesulfonamide] |
|  |  |  | 5 to 10 | NS(=O)(=O)c1ccc(Nc2ncc3cccc(OCc4ccc5nonc5c4)c3n2)cc1 [Compound 720, 4-(8-(benzo[c][1,2,5]oxadiazol-5-ylmethoxy)quinazolin-2-ylamino)benzenesulfonamide] |
|  |  |  | 5 to 10 | c1cc(OC2CCCC2)c2nc(NC3CC3)ncc2c1 [Compound 728, 8-(cyclopentyloxy)-N-cyclopropylquinazolin-2-amine] |
|  |  |  | 5 to 10 | Fc1ccc(F)c(CNc2ncc3cccc(OC4CCCC4)c3n2)c1 [Compound 729, 8-(cyclopentyloxy)-N-(2,5-difluorobenzyl)quinazolin-2-amine] |
|  |  |  | < 5 | Oc1cccc2cnc(NCc3cc(F)ccc3F)nc12 [Compound 730, 2-(2,5-difluorobenzylamino)quinazolin-8-ol] |
|  |  |  | 5 to 10 | NS(=O)(=O)c1ccc(Nc2ncc3ccc(-c4ccc5c(c4)OCO5)cc3n2)cc1 [Compound 791, 4-(7-(benzo[d][1,3]dioxol-5-yl)quinazolin-2-ylamino)benzenesulfonamide] |

| Compound | IC50 (PDK1 kinase) [µM] | EC50 (A2780 cells; [1]) [µM] | EC50 (A2780 cells; [2]) [µM] | EC50 (A2780 cells; [3]) [µM] |
| --- | --- | --- | --- | --- |
| NS(=O)(=O)c1ccc(Nc2ncc3cccc(OC4CN5CCC4CC5)c3n2)cc1 (centres unmarked) [Compound 33, 4-[8-(1-Aza-bicyclo[2.2.2]oct-3-yloxy)-quinazolin-2-ylamino]-benzenesulfonamide] | < 5 | < 5 |  |  |
